Measurements reported in article PMC11853660 (Biomimetics, 2025).
Where a SMILES comes first, the peptide text is derived from it. [ ]: non-standard residue; d: D form. pS = N[C@@H](COP(=O)(O)O)C(=O)O

Columns and labels:
[1] = P26 in aqueous solution, without enzymes; details: 37 °C, up to 7 days
[2] = Self-degradation of P26 without enzymes (LC/MS); format: physicochemical; details: P26 solution 0.2 mg/mL, 37 °C, 7 days
Experimental: P26 amelogenin peptide was synthetized by Biomer Technology (San Francisco, CA, USA). P26 solutions (0.2 mg/mL) were prepared as previously described and incubated at 37 °C for 7 days and subsequently analyzed by liquid chromatography/mass spectrometry (LC/MS; Scripps Research Institute, San Diego, CA, USA). Significant peaks in the MS spectra were matched to degradation products of P26 based on their m/z.

α-amylase = test: Peptide stability in artificial saliva with α-amylase (HPLC); format: in vitro ADME; details: 37 °C
Experimental: (§1) Solutions of MMP8, MMP1 (R&D systems, Minneapolis, MN, USA), α-amylase, and lysozyme (Sigma, Burlington, MA, USA) were prepared following the manufacturer’s instructions. Prior to each use, pro-MMP1 and pro-MMP8 were activated with 10 mM APMA according to the manufacturer’s protocol (R&D Systems). Successful cleavage of both enzymes into their active form was confirmed using SDS-PAGE gel electrophoresis. To better mimic in vivo oral conditions, all enzymes were used at concentrations found in healthy individuals, as reported in the literature: MMP8 (final 0.286 μg/mL; [30], MMP1 (final 20 pg/mL [31], α-amylase (final 119 U/mL; [32], and lysozyme (final 0.4 μg/mL [30]. A total of 125 μL of aqueous P26 or P26-CS solutions (0.2 mg/mL final) was added to an equal volume of artificial saliva (AS; 1.2 mM CaCl2·2H2O, 50 mM HEPES buffer, 0.72 mM KH2PO4, 16 mM KCl, 4.5 mM NH4Cl, 0.2 mM MgCl2·6H20, and 1 ppm NaF). Then, the enzymes were mixed in and immediately placed in a water bath at 37 °C. An initial collection was (t = 0) carried out and analyzed by Reverse-phase High-Performance Liquid Chromatography (HPLC), as described below. Incubations for each sample were performed in triplicate. To quantify the effect of each enzyme, individual enzymes were incubated with 125 μL of P26-CS and 125 μL of AS. […]

[3] = system: MMP8, MMP1, α-amylase, and lysozyme; test: Peptide stability in artificial saliva with individual salivary enzymes (HPLC peak area); format: in vitro ADME; details: individual enzymes at native concentrations, peptide 0.2 mg/mL, 30 min, 37 °C, RP-HPLC C18 peak area, triplicate
Experimental: as §1

[4] = system: MMP1, MMP8, α-amylase, and lysozyme; test: Peptide stability in artificial saliva with all salivary enzymes simultaneously (HPLC); format: in vitro ADME; details: all enzymes at native concentrations, 30 min, 37 °C, n = 3
Experimental: as §1

| Compound | cleaved bond [1] | self-degradation of the peptide without enzymes [2] | degradation products at diluted amylase versus native ratio (α-amylase; α-amylase 23.87 U/mL (5× dilution, enzyme to substrate 1:10) compared with 1:2, artificial saliva, HPLC spectra) | degradation by amylase relative to other enzymes (α-amylase; α-amylase 119 U/mL (enzyme to substrate 1:2), artificial saliva, 5 h, HPLC) | peptide substrate remaining (% area of initial HPLC peak at t = 0) [3] | peptide stability, P26 versus P26 with CS [4] |
| --- | --- | --- | --- | --- | --- | --- |
| MPLPS(PHOS)YEVLTPLKWPSTDKTKREEVD | M-P and V-D and E-E and L-P and P-S(PHOS) | – | – | – | – | – |
| CSCC[C@H](N)C(=O)N1CCC[C@H]1C(=O)N[C@@H](CC(C)C)C(=O)N1CCC[C@H]1C(=O)N[C@@H](COP(=O)(O)O)C(=O)N[C@@H](Cc1ccc(O)cc1)C(=O)N[C@@H](CCC(=O)O)C(=O)N[C@H](C(=O)N[C@@H](CC(C)C)C(=O)N[C@H](C(=O)N1CCC[C@H]1C(=O)N[C@@H](CC(C)C)C(=O)N[C@@H](CCCCN)C(=O)N[C@@H](Cc1c[nH]c2ccccc12)C(=O)N1CCC[C@H]1C(=O)N[C@@H](CO)C(=O)N[C@H](C(=O)N[C@@H](CC(=O)O)C(=O)N[C@@H](CCCCN)C(=O)N[C@H](C(=O)N[C@@H](CCCCN)C(=O)N[C@@H](CCCNC(=N)N)C(=O)N[C@@H](CCC(=O)O)C(=O)N[C@@H](CCC(=O)O)C(=O)N[C@H](C(=O)N[C@@H](CC(=O)O)C(=O)O)C(C)C)[C@@H](C)O)[C@@H](C)O)[C@@H](C)O)C(C)C [P26] (H-MPLP[pS]YEVLTPLKWPSTDKTKREEVD-OH) | – | substantially resistant to self-degradation | lesser degradation products | highest levels of degradation amongst all the enzymes used | 90–100% | comparably stable |
